Source: patent US20230165873A1, “Methods of Use for Single Molecule Compounds Providing Multi-Target Inhibition to Treat Covid 19” (priority 2020, published 2023)
Where two headings read alike, the source gives them in different places.

Assays:
[1] = test system: mice carrying the Fli1 deletion; experiment: Bleomycin-induced lung fibrosis in mice carrying the Fli1 deletion; assay type: in vivo; conditions: 50 mg/kg on day 9, 12, 15 after intra-tracheal bleomycin 0.4 mg/kg; sacrifice day 21
Description: Bleomycin-induced lung fibrosis is the most frequently used rodent model for lung fibrosis, and inflammatory and fibrotic events similar to those seen in human pulmonary fibrosis (Am J Respir Cell Mol Biol. 2013 Aug; 49(2): 167-179; https://www.atsjournals.org/doi/full/10.1165/rcmb.2013-0094TR; PMID: 23526222). Systemic sclerosis (SSc) is manifested by vasculopathy, immune dysregulation and fibrosis of the skin and certain internal organs, especially lungs (Nat Commun. 2014; 5: 5797.; https://www.nature.com/articles/ncomms6797; PMID: 25504335). Friend leukemia integration 1 (Fli1) is a potent repressor of the type I collagen gene. […] Bleomycin was administered intra-tracheally to mice (0.4 mg/kg) and no drug was given during the inflammatory phase (8 days). […] IRS-1 is a component of the insulin signaling pathway which is involved in the increased collagen production by cells carrying the Fli1 deletion.

SARS-CoV-2 [2] = experiment: microbe, parasite or virus in culture; assay type: cell-based; conditions: read-out: IC50 based on SARS-CoV-2 viral loads in culture supernatant
SARS-CoV-2 [3] = experiment: microbe, parasite or virus in culture; assay type: cell-based; conditions: read-out: IC50 based on dose response curve by cytopathic effect (CPE)
SARS-CoV-2 [4] = experiment: microbe, parasite or virus in culture; assay type: cell-based; conditions: for EC50: read-out: Median Effective Dose
SARS-CoV-2 [5] = experiment: microbe, parasite or virus in culture; assay type: cell-based; conditions: for EC50: read-out: Median Effective Dose; remark: listed apart in the source
BRD4-1 = molecular target: T1, BRD4-1 (Homo sapiens, UniProt O60885); experiment: BRD4-1 in vitro inhibition; assay type: binding
T1 construct: BRD4-1
Protocol: (§1) The kinase or bromodomain inhibitory activity of a compound of the invention can be determined by routine methods known to the skilled artisan without undue experimentation, or by procuring relevant analysis by a commercial vendor offering such services. […] In vivo, PI3K inhibition can be determined from target tissue biopsies by standard tissue processing in which cells are disrupted and Western Blot analysis is performed to determine the presence or absence of pAKT (substrate of PI3K) relative to a control sample. PI3K inhibition assays and BTK inhibition assays are known in the art and can be procured commercially through vendors such as Reaction Biology (Malvern, PA). The activity of a compound of the invention as an inhibitor of a bromodomain-containing protein, such as a BET protein, including BRD2, BRD3, BRD4, and/or BRDT, or an isoform or mutant thereof, may be determined in vitro, in vivo, or in a cell line. In vitro assays include assays that determine inhibition of bromodomain-containing proteins. Alternatively, inhibitor binding may be determined by running a competition experiment where a provided compound is incubated with a bromodomain-containing protein, such as a BET protein bound to known ligands, labeled or unlabeled. In vitro bromodomain inhibition assays can be performed using Alpha Screen Technology (Perkin Elmer Life and Analytical Sciences, Shelton, CT). In vivo bromodomain inhibition can be determined indirectly by evaluating the amount of a protein whose gene transcription is influenced or controlled by the bromodomain protein, for example, MYCN protein transcription is controlled by BRD4 (J.E. Delmore et al., Cell 2011, 146, 904-917; A. Puissant, Cancer Discov. 2013, 3, 308-323).

BRD4-2 = molecular target: T2, BRD4-2 (Homo sapiens, UniProt O60885); experiment: BRD4-2 in vitro inhibition; assay type: binding
T2 construct: BRD4-2
Protocol: as §1

PI3K beta = PI3K beta (Homo sapiens, UniProt P42338); experiment: PI3K beta in vitro inhibition; assay type: biochemical
Protocol: as §1

PI3K gamma = PI3K gamma (Homo sapiens, UniProt P48736); experiment: PI3K gamma in vitro inhibition; assay type: biochemical
Protocol: as §1
(§2) IC50 inhibition data against the indicated targets were determined for compounds of the invention using standard in vitro assays (Tables 8 and 9).

BTK = BTK (Homo sapiens, UniProt Q06187); experiment: BTK in vitro inhibition; assay type: biochemical
Protocol: as §1, §2

BTK C481S = BTK C481S (Homo sapiens, UniProt Q06187, C481S); experiment: BTK C481S in vitro inhibition; assay type: biochemical
Protocol: as §1, §2

mTOR = mTOR (Homo sapiens, UniProt P42345); experiment: mTOR in vitro inhibition; assay type: biochemical
Protocol: as §1, §2

SARS-CoV-2 [6] = conditions: at effective anti-viral concentrations; Hela-ACE2 cells
SARS-CoV-2 [7] = experiment: microbe, parasite or virus in culture; conditions: for IC50: Severe acute respiratory syndrome coronavirus 2, HeLa-ACE2, read-out: IC50 inhibition of SARS-CoV-2 (viral plaques)
SARS-CoV-2 [8] = experiment: SARS-CoV-2 viral load in culture supernatant (RT-QPCR), UNCN1T cells
SARS-CoV-2 [9] = experiment: Cytopathic effect (CPE), CellTiter-Glo, SARS-CoV-2 infected UNCN1T cells; conditions: read-out: IC50 based on dose response curve by cytopathic effect (CPE), 24 hrs post-infection
CDK4 cyclinD1 = CDK4 cyclinD1 (Homo sapiens, UniProt P11802); experiment: CDK4 cyclinD1 in vitro inhibition; assay type: biochemical
Protocol: as §1, §2

CDK6 cyclinD1 = CDK6 cyclinD1 (Homo sapiens, UniProt Q00534); experiment: CDK6 cyclinD1 in vitro inhibition; assay type: biochemical
Protocol: as §1, §2

PI3K alpha = PI3K alpha (Homo sapiens, UniProt P42336); experiment: PI3K alpha in vitro inhibition; assay type: biochemical
Protocol: as §1

PI3K delta = PI3K delta (Homo sapiens, UniProt O00329); experiment: PI3K delta in vitro inhibition; assay type: biochemical
Protocol: as §1, §2

Syk = Syk (Homo sapiens, UniProt P43405); experiment: Syk in vitro inhibition; assay type: biochemical
Protocol: as §1, §2

[10] = Severe acute respiratory syndrome coronavirus 2, 24 h
[11] = Severe acute respiratory syndrome coronavirus 2, 48 h
[12] = read-out: IC50 based on SARS-CoV-2 viral loads in culture supernatant, 24 hrs post-infection
[13] = read-out: IC50 based on SARS-CoV-2 viral loads in culture supernatant, 48 hrs post-infection
[14] = read-out: IC50 inhibition PI3K gamma

Sequence of CDK6 cyclinD1 (Q00534 whole entry): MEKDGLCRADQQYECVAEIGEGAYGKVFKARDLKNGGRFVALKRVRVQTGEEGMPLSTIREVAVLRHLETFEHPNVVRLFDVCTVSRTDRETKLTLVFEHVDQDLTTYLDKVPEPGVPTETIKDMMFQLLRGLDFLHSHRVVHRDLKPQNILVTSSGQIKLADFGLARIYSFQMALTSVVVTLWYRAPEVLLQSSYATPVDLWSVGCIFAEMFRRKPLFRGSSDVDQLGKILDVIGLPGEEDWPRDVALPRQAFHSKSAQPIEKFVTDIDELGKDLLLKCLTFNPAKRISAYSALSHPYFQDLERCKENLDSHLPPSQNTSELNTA
Sequence of CDK6 cyclinD1 (P24385 whole entry partner): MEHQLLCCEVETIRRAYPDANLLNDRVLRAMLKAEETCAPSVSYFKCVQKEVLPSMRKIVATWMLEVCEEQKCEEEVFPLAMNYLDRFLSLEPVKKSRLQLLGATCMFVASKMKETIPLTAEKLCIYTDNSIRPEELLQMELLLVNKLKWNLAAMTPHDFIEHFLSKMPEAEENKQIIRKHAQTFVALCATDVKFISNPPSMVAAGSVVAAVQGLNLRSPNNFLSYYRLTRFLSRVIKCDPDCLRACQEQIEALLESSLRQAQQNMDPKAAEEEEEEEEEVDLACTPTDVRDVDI
Sequence of PI3K alpha (P42336 whole entry): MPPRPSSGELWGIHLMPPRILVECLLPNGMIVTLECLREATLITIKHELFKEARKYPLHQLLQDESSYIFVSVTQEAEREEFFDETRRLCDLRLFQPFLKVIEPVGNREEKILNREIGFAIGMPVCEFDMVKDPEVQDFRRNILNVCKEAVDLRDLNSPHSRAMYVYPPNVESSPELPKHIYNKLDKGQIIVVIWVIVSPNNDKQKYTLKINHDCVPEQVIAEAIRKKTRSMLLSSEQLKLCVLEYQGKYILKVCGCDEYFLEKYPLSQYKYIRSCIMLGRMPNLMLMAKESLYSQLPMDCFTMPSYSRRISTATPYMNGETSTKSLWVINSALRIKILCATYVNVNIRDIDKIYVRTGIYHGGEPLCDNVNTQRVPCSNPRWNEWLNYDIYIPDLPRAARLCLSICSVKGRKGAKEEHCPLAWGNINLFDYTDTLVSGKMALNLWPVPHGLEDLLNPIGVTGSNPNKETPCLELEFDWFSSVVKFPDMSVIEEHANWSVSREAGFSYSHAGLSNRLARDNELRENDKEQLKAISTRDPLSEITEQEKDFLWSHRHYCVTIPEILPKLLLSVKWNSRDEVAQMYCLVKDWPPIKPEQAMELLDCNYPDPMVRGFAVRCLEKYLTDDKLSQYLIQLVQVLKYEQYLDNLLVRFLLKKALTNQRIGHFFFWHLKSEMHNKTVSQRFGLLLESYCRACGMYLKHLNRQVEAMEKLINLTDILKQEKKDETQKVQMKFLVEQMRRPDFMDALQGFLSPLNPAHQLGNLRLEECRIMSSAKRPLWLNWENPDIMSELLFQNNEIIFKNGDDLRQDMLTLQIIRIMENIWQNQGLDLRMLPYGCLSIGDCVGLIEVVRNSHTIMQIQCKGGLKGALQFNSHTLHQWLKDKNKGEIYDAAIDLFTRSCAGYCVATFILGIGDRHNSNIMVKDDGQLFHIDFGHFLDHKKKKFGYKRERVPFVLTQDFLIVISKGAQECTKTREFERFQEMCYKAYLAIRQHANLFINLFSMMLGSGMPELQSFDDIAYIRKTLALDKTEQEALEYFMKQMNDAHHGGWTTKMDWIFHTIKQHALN
Sequence of PI3K alpha (P27986 whole entry partner): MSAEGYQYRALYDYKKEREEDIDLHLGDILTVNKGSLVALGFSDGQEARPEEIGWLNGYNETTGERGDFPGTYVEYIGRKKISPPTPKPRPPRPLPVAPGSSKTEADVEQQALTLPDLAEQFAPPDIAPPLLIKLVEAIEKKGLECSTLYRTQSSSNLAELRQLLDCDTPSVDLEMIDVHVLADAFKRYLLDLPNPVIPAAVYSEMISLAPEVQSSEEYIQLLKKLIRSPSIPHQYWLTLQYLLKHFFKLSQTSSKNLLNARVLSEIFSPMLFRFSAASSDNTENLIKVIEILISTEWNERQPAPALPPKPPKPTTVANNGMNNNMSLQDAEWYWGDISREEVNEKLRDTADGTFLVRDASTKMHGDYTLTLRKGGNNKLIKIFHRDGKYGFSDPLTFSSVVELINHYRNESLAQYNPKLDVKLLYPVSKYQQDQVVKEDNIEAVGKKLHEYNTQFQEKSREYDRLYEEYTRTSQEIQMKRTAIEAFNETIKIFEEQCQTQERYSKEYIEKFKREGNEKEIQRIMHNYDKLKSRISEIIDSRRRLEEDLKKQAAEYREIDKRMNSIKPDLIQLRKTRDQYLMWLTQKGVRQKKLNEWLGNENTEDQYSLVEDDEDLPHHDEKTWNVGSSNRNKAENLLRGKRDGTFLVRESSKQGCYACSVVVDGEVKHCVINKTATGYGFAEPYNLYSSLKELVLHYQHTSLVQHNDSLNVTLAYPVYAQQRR
Sequence of PI3K delta (O00329 whole entry): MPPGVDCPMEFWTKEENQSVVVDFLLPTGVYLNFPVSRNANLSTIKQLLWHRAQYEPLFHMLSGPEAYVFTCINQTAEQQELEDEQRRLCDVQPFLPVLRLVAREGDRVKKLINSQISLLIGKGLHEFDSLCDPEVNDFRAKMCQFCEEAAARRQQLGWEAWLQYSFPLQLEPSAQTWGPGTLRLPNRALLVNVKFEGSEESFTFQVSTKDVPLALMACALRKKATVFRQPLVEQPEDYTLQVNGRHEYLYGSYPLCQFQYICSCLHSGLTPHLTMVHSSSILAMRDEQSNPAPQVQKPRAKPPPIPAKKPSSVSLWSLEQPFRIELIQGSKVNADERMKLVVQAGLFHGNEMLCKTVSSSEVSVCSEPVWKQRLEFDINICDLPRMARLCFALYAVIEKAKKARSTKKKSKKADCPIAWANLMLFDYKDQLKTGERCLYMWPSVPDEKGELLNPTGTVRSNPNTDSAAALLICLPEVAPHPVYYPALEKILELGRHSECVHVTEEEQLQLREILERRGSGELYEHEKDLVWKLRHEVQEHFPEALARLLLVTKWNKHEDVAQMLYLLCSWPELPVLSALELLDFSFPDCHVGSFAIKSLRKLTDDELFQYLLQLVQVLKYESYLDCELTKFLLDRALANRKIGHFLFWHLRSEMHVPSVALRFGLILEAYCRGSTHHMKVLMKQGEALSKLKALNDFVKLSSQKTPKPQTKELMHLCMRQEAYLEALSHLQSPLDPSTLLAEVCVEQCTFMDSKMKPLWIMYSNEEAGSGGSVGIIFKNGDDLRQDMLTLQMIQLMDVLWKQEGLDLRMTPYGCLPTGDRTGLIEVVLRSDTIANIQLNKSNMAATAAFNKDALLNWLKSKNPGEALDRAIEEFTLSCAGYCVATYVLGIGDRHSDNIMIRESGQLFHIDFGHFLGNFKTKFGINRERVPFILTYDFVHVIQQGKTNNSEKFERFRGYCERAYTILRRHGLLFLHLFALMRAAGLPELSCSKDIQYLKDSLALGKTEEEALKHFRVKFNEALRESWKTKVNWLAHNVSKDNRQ
Sequence of PI3K delta (P27986 whole entry partner): as the sequence (P27986 whole entry partner) above
Sequence of PI3K gamma (P48736 whole entry): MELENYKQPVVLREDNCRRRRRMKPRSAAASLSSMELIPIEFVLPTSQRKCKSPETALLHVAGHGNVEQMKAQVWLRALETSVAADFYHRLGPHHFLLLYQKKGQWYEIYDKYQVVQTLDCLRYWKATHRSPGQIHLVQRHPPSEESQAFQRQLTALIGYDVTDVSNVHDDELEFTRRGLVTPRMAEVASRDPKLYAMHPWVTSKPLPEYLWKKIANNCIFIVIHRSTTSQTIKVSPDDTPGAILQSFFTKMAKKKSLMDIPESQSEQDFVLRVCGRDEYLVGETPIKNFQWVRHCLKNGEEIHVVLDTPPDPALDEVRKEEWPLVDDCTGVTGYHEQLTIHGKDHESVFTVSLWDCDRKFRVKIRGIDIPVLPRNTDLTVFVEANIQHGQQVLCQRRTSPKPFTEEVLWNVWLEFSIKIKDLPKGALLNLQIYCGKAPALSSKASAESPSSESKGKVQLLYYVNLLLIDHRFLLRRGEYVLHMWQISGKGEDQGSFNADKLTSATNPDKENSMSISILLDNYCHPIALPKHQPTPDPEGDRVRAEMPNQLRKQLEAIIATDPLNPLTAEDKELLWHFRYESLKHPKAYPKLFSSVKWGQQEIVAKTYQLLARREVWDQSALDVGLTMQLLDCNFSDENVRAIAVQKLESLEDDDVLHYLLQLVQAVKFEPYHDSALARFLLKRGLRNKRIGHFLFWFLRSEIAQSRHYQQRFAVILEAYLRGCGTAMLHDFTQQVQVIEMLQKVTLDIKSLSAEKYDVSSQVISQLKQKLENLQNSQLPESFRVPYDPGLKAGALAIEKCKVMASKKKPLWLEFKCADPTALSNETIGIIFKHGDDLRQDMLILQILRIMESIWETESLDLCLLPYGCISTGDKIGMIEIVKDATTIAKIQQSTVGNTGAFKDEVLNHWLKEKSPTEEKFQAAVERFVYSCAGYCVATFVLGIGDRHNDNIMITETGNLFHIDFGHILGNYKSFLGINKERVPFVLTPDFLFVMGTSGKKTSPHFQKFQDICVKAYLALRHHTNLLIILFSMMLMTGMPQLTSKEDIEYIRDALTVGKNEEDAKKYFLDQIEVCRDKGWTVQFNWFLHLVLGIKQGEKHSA
Sequence of CDK4 cyclinD1 (P11802 whole entry): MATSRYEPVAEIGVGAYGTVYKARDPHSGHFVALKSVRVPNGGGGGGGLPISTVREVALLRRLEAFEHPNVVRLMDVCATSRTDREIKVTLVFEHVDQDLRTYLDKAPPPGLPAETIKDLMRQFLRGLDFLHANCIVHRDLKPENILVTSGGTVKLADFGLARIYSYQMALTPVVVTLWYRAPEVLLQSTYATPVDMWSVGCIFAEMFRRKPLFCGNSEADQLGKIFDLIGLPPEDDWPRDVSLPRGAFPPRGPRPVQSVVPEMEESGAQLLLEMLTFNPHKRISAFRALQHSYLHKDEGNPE
Sequence of CDK4 cyclinD1 (P24385 whole entry partner): as the sequence (P24385 whole entry partner) above

SMILES	IC50 (BRD4-1)	IC50 (BRD4-2)	IC50 (mTOR)	IC50 (PI3K gamma; [14])	IC50 (CDK4 cyclinD1)	IC50 (CDK6 cyclinD1)	IC50 (PI3K alpha)	IC50 (PI3K delta)	IC50 (Syk)	further results
O=c1cc(N2CCOCC2)oc2c(-c3ccc4c(c3)OCCO4)csc12 [Compound 0]	< 500 nM	500 to 1000 nM	< 500 nM	–	–	–	–	–	–	prevention of development of fibrosis (Masson Trichrome staining, tissue collagen content, Ashcroft score) [1]: remarkably effective in preventing the development of fibrosis; IC50 (SARS-CoV-2 [2]; [10]): 1020 nM; IC50 (SARS-CoV-2 [2]; [11]): 3220 nM; IC50 (SARS-CoV-2 [3]; [10]): 1800 nM; IC50 (SARS-CoV-2 [3]; [11]): 4400 nM; EC50 (SARS-CoV-2 [4]; Severe acute respiratory syndrome coronavirus 2, VERO STAT1 KO Cells, 24 hours post-infection): 2620 nM; EC50 (SARS-CoV-2 [5]; Severe acute respiratory syndrome coronavirus 2, UNCN1T Cells, 24 hours post-infection): 1840 nM; IC50 (PI3K beta): < 500 nM; IC50 (PI3K gamma; IC50 inhibition PI3K gamma): < 500 nM; IC50 (BTK): 10000 to 45000 nM; IC50 (BTK C481S): 10000 to 45000 nM; cellular cytotoxicity (SARS-CoV-2 [6]): no cellular cytotoxicity is noted; inhibition at 2.4 µM (SARS-CoV-2 [7]; Severe acute respiratory syndrome coronavirus 2, HeLa-ACE2): 94%; IC50 (SARS-CoV-2 [7]): 900 nM; IC50 (SARS-CoV-2 [8]; [12]): 1520 nM; IC50 (SARS-CoV-2 [8]; [13]): 1580 nM; IC50 (SARS-CoV-2 [9]): 250 nM
CN(C)C(=O)c1cc2cnc(Nc3ccc(-c4csc5c(=O)cc(N6CCOCC6)oc45)cc3)nc2n1C1CCCC1 [Compound 6]	–	–	1000 to 10000 nM	1000 to 10000 nM	< 500 nM	< 500 nM	–	–	–	–
CN(C)C(=O)c1cc2cnc(Nc3ccc(-c4csc5c(=O)cc(N6CCOCC6)oc45)nc3)nc2n1C1CCCC1 [Compound 7]	10000 to 45000 nM	1000 to 10000 nM	1000 to 10000 nM	10000 to 45000 nM	< 500 nM	< 500 nM	1000 to 10000 nM	–	–	IC50 (PI3K beta): 10000 to 45000 nM
Cc1nn(-c2ccnc(Nc3ccc(-c4csc5c(=O)cc(N6CCOCC6)oc45)cc3)n2)cc1CN1CCC1 [Compound 54]	1000 to 10000 nM	1000 to 10000 nM	–	1000 to 10000 nM	> 45000 nM	> 45000 nM	< 500 nM	< 500 nM	< 500 nM	–
Cc1nn(-c2ccnc(Nc3ccc(-c4csc5c(=O)cc(N6CCNCC6)oc45)cc3)n2)cc1CN1CCC1 [Compound 55]	1000 to 10000 nM	> 45000 nM	–	> 45000 nM	1000 to 10000 nM	< 500 nM	> 45000 nM	1000 to 10000 nM	< 500 nM	–
Cc1nn(-c2ccnc(Nc3ccc(-c4csc5c(=O)cc(N6CCN(C(=O)OC(C)(C)C)CC6)oc45)cc3)n2)cc1CN1CC(O)C1 [Compound 56]	1000 to 10000 nM	> 45000 nM	–	10000 to 45000 nM	1000 to 10000 nM	500 to 1000 nM	1000 to 10000 nM	1000 to 10000 nM	< 500 nM	–
Cc1nn(-c2ccnc(Nc3ccc(-c4csc5c(=O)cc(N6CCOCC6)oc45)cc3)n2)cc1CN(C)C [Compound 57]	1000 to 10000 nM	1000 to 10000 nM	–	10000 to 45000 nM	< 500 nM	< 500 nM	500 to 1000 nM	500 to 1000 nM	< 500 nM	–
Cc1nn(-c2ccnc(Nc3ccc(-c4csc5c(=O)cc(N6CCOCC6)oc45)cc3)n2)cc1CN1CCOCC1 [Compound 58]	1000 to 10000 nM	1000 to 10000 nM	–	10000 to 45000 nM	> 45000 nM	> 45000 nM	500 to 1000 nM	< 500 nM	> 45000 nM	–
Cc1nn(-c2ccnc(Nc3ccc(-c4csc5c(=O)cc(N6CCOCC6)oc45)cc3)n2)cc1CN(C)CCO [Compound 59]	1000 to 10000 nM	1000 to 10000 nM	–	10000 to 45000 nM	1000 to 10000 nM	1000 to 10000 nM	1000 to 10000 nM	1000 to 10000 nM	500 to 1000 nM	–
CCC(CC)COC(=O)[C@H](C)N[P@](=O)(OC[C@H]1O[C@@](C#N)(c2ccc3c(N)ncnn23)[C@H](O)[C@@H]1O)Oc1ccccc1 [Remdesivir, reference compound]	–	–	–	–	–	–	–	–	–	IC50 (SARS-CoV-2 [2]; [10]): 1030 nM; IC50 (SARS-CoV-2 [2]; [11]): 760 nM; IC50 (SARS-CoV-2 [3]; [10]): 2240 nM; IC50 (SARS-CoV-2 [3]; [11]): 4600 nM; EC50 (SARS-CoV-2 [4]; Severe acute respiratory syndrome coronavirus 2, Vero, 24 h): 533 nM; dose reduction index (DRI) (SARS-CoV-2 [4]; VERO-STAT1 KO cells at Fa 0.5): 2.35; EC50 (SARS-CoV-2 [5]; [10]): 272 nM; dose reduction index (DRI) (SARS-CoV-2 [5]; UNCN1T cells): 3.75; IC50 (SARS-CoV-2 [7]): 100 nM; IC50 (SARS-CoV-2 [8]; [12]): 1060 nM; IC50 (SARS-CoV-2 [8]; [13]): 2750 nM; IC50 (SARS-CoV-2 [9]): 220 nM
